The results in this text go back to patent publication US9745321B2, “Fused pyrimidine compound, intermediate, preparation method therefor, and composition and application thereof” (SHANGHAI YINGLI PHARMACEUTICAL CO., LTD, priority 2013, dated 2017).

For one test, the system named is Raji cells. Briefly: Inhibition of TNF-α generation of human Raji cell induced by human IgM. In kind it is cell-based. The note with it: 10 μg/ml IgM stimulation, 24 hrs, ELISA. Here is the method: Screening Test for a Drug on Inhibiting TNF-α Generation of Human Raji Cell Induced by Human IgM
• 1. Raji cell lines (source of human Burkitt's lymphoma) were employed. • 2. 1×10^5/well Raji cells were plated onto a 96-well cell culture plate. • 3. Compounds to be screened were diluted to the corresponding test concentrations and added into the cell culture system 30 minutes before IgM stimulation. • 4. 10 μg/ml IgM monoclonal antibody was added into the cell culture system to stimulate the cells generating TNF-α. • 5. 24 hrs later, the amount of TNF-α generated by the cell system was measured by ELISA method. • 6.
(In general: An ELISA detects its analyte on a solid surface through an enzyme-linked reagent.)

For the next test, the target named is PI3Kδ (Homo sapiens (Human), UniProt O00329). Briefly: PI3Kδ enzyme activity inhibition IC50 evaluation assay. The format is biochemical. Conditions: luminescence, 25 μM ATP, 50 μM PIP2, 2 hrs room temperature. Here is the method: (§1) PI3Kα, PI3Kδ, PI3Kβ and PI3Kγ Enzyme Activity Inhibition IC50 Evaluation Assay
• 1. Buffer preparation: 50 mM HEPES, pH 7.5, 3 mM MgCl2, 1 mM EGTA, 100 mM NaCl, 0.03% CHAPS. • 2. Compound was formulated in 100% DMSO in a concentration gradient, and added to a 384-well plate to a final DMSO concentration of 1%. • 3. PI3Kα, PI3Kδ, PI3Kβ and PI3Kγ enzymes were diluted to an optimum concentration with the following buffer: 50 mM HEPES, pH 7.5, 3 mM MgCl2, 1 mM EGTA, 100 mM NaCl, 0.03% CHAPS, 2 mM DTT, and transferred to a 384-well plate and incubated with the compound for a certain time. • 4. […] For PI3Kβ and PI3Kγ, it was still necessary to further add 10 μL ADP-Glo Detection Reagent, and then equilibrated at room temperature for 30 minutes. • 5. Read Luminescense with FlexStation, and calculate the inhibition rate as the average of two tests.

The target of a further test is PI3Kα (Homo sapiens (Human), UniProt P42336). Nature of the test: PI3Kα enzyme activity inhibition IC50 evaluation assay. The format is biochemical. The note with it: ratio PI3Kα vs PI3Kδ. The procedure: as §1
• 1. Buffer preparation: 50 mM HEPES, pH 7.5, 3 mM MgCl2, 1 mM EGTA, 100 mM NaCl, 0.03% CHAPS. • 2. Compound was formulated in 100% DMSO in a concentration gradient, and added to a 384-well plate to a final DMSO concentration of 1%. • 3. PI3Kα, PI3Kδ, PI3Kβ and PI3Kγ enzymes were diluted to an optimum concentration with the following buffer: 50 mM HEPES, pH 7.5, 3 mM MgCl2, 1 mM EGTA, 100 mM NaCl, 0.03% CHAPS, 2 mM DTT, and transferred to a 384-well plate and incubated with the compound for a certain time. • 4. Substrate was diluted to an optimum concentration with the following buffer: 50 mM HEPES, pH 7.5, 3 mM MgCl2, 1 mM EGTA, 100 mM NaCl, 0.03% CHAPS, 2 mM DTT, 50 μM PIP2, 25 μM ATP; then added to a 384-well plate to initiate the reaction, and for PI3Kα, PI3Kβ and PI3Kγ at room temperature reacted for 1 hr, for PI3Kδ at room temperature reacted for 2 hrs. For PI3Kβ and PI3Kγ, it was still necessary to further add 10 μL ADP-Glo Detection Reagent, and then equilibrated at room temperature for 30 minutes. • 5. Read Luminescense with FlexStation, and calculate the inhibition rate as the average of two tests.

Chain of PI3Kδ (O00329 whole entry): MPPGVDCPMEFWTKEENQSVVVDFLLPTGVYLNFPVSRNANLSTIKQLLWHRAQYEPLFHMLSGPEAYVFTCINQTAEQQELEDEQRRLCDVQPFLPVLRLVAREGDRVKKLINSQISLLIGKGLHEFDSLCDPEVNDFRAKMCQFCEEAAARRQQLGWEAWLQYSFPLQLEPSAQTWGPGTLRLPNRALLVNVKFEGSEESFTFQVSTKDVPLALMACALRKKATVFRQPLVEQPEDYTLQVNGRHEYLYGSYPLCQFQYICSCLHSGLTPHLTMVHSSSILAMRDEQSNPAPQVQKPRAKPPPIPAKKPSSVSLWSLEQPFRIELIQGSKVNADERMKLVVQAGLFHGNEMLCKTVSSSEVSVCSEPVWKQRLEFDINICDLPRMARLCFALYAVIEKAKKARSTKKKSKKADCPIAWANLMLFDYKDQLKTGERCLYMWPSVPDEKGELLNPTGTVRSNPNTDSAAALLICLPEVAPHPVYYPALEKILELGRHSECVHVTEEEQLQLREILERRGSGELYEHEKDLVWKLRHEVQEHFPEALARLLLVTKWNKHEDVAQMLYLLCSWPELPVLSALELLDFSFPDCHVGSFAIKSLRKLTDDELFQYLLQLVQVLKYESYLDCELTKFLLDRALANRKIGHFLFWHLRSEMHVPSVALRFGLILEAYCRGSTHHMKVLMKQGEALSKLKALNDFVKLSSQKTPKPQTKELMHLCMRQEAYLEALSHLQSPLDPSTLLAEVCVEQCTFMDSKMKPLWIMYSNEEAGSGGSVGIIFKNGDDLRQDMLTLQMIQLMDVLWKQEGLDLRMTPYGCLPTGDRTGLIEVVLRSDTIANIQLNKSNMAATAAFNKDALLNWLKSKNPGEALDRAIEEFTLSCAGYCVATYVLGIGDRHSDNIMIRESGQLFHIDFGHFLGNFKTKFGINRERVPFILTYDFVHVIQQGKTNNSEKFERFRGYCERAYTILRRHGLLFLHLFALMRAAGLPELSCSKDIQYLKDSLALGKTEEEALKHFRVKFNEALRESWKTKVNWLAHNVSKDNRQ
Chain of PI3Kδ (P27986 whole entry partner): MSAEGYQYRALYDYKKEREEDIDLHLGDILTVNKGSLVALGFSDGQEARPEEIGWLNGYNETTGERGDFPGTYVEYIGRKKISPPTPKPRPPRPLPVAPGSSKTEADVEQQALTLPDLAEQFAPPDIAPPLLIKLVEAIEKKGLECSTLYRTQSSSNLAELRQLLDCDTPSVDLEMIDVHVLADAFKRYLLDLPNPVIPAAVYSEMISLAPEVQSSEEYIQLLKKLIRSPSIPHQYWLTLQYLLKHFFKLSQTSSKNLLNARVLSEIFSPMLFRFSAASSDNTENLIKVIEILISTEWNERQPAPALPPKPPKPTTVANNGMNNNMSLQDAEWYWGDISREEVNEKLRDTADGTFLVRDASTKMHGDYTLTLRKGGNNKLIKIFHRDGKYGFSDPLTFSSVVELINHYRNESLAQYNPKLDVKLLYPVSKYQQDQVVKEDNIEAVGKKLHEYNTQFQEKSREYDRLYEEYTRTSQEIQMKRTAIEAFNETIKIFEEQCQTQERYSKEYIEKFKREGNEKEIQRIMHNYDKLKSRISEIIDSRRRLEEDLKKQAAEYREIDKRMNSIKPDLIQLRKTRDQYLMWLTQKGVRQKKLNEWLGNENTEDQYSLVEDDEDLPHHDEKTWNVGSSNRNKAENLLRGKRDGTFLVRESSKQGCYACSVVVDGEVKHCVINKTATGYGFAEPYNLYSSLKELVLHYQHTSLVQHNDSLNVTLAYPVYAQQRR
Chain of PI3Kα (P42336 whole entry): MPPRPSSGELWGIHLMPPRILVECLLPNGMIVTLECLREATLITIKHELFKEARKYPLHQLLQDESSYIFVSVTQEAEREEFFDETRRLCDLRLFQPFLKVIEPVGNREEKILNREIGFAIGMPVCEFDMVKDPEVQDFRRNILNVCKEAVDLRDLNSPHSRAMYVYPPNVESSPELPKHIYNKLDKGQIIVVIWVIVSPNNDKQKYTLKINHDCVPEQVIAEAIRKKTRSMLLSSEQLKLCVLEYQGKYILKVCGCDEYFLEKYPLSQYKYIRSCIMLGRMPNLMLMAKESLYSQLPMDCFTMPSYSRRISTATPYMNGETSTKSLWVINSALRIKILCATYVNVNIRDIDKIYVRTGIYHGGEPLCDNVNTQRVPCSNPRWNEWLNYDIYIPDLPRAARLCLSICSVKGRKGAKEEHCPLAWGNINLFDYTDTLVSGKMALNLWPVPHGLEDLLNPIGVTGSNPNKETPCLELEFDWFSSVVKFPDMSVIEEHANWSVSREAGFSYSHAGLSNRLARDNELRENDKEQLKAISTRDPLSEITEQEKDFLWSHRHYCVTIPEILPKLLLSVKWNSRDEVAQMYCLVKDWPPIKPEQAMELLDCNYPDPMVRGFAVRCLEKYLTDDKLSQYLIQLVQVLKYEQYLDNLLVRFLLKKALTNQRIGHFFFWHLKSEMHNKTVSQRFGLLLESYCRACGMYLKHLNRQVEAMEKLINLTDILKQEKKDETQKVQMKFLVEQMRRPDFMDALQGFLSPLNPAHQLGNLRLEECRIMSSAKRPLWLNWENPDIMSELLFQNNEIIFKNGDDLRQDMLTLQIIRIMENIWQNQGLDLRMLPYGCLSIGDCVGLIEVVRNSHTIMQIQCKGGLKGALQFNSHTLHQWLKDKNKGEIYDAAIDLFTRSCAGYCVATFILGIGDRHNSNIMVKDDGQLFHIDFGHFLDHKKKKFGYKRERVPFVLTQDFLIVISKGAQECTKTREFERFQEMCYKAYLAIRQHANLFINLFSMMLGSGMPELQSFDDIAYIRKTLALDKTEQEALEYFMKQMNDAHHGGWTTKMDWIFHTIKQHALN
Chain of PI3Kα (P27986 whole entry partner): as the sequence (P27986 whole entry partner) above

For orientation: IC50 means the point on the concentration scale where inhibition reaches its midpoint. Higher therefore signals weaker potency. Consider `CC[C@H](Nc1ncnc2[nH]cnc12)c1nc2cccc(F)c2c(=O)n1-c1ccccc1` [CAL-101, idelalisib, reference compound], for which inhibition with Raji cells (Homo sapiens) was half-maximal at 29.8 nM (IC50).
As to `c1cc(-c2nc(N3CCOCC3)nc3c(CN4CCN(C5CCOCC5)CC4)csc23)c2cc[nH]c2c1` [Compound 10], the IC50 on PI3Kδ turned out to be 25 nM; in the test on Raji cells it was 28 nM. On PI3Kα, the α/δ selectivity is >400.
The like results for `c1cc(-c2nc(N3CCOCC3)nc3c(CN4CCN(C5COC5)CC4)csc23)c2cc[nH]c2c1` [Compound 11] were, in that order, 17 nM, 41.1 nM and >588.
For the compound `CC(=O)N1CCN(Cc2csc3c(-c4cccc5[nH]ccc45)nc(N4CCOCC4)nc23)CC1` [Compound 14], the half-maximal inhibitory concentration (IC50) on PI3Kδ turned out to be 3.8 nM; with Raji cells, 25.6 nM. For the same compound, the α/δ selectivity at PI3Kα amounted to 700.
For `COc1ncc(-c2nc(N3CCOCC3)nc3c(CN4CCC(C(C)(C)O)CC4)c(C)sc23)cc1NS(C)(=O)=O` [Compound 60] the same measures were 7.1 nM, 2 nM and 147.
The like results for `COc1ncc(-c2nc(N3CCOCC3)nc3c(CN4CCN(C(=O)CO)CC4)c(C)sc23)cc1NS(C)(=O)=O` [Compound 71] were, in that order, 6.8 nM, 8.6 nM and 13.
For `COc1ncc(-c2nc(N3CCOCC3)nc3c(CN4CCC(C(C)(C)O)CC4)c(C)sc23)cc1NS(=O)(=O)C1CC1` [Compound 79] the same measures were 9.4 nM, 14.5 nM and 582.
For `COc1ncc(-c2nc(N3CCOCC3)nc3c(CN4CCC(OC)CC4)c(C)sc23)cc1NS(=O)(=O)C1CC1` [Compound 81], the IC50 at PI3Kδ is 24 nM; in the test on Raji cells it was 43 nM. The α/δ selectivity on PI3Kα came to 374.
For `COc1ncc(-c2nc(N3CCOCC3)nc3c(CN4CCN(C(=O)C(F)(F)F)CC4)c(C)sc23)cc1NS(=O)(=O)C1CC1` [Compound 82] the same measures were 15 nM, 76.8 nM and 143.
For `COc1ncc(-c2nc(N3CCOCC3)nc3c(CN4CCN(CC(F)(F)F)CC4)c(C)sc23)cc1NS(=O)(=O)C1CC1` [Compound 84] the same measures were 47 nM, 30.4 nM and >213.
The like results for `COc1ncc(-c2nc(N3CCOCC3)nc3c(CN4CCN(C(C)(C)C)CC4)c(C)sc23)cc1NS(C)(=O)=O` [Compound 89] were, in that order, 2.6 nM, 1.3 nM and 48.
Turning to `COc1ncc(-c2nc(N3CCOCC3)nc3c(CN4CCN(C(=O)C(F)(F)F)CC4)c(C)sc23)cc1NS(C)(=O)=O` [Compound 90], the values for the IC50 against PI3Kδ and with Raji cells were 4.9 nM and 31.2 nM, respectively. The α/δ selectivity on PI3Kα amounted to 69.
For `COc1ncc(-c2nc(N3CCOCC3)nc3c(CN4CCN(C(C)C)CC4)c(C)sc23)cc1NS(C)(=O)=O` [Compound 91] the same measures were 3.2 nM, 3.4 nM and 60.
For `COc1ncc(-c2nc(N3CCOCC3)nc3c(CN4CCN(C(=O)CC#N)CC4)c(C)sc23)cc1NS(C)(=O)=O` [Compound 100] the same measures were 17 nM, 5.7 nM and 17.
For `CCOC1CCN(Cc2c(C)sc3c(-c4cnc(OC)c(NS(C)(=O)=O)c4)nc(N4CCOCC4)nc23)CC1` [Compound 103] the same measures were 8.4 nM, 9.3 nM and 176.
Take `COc1ncc(-c2nc(N3CCOCC3)nc3c(CN4CCC(C5CC5)CC4)c(C)sc23)cc1NS(C)(=O)=O` [Compound 131]: on PI3Kδ, it took 6.2 nM to reach half-maximal inhibition (IC50). In addition, the α/δ selectivity on PI3Kα was 627.
For `COc1ncc(-c2nc(N3CCOCC3)nc3c(CN4CCC(N5CC=CC5)CC4)c(C)sc23)cc1NS(C)(=O)=O` [Compound 132] the same measures were 10 nM and 35.
For the compound `COc1ncc(-c2nc(N3CCOCC3)nc3c(CN4CC[C@@H](N5CCC[C@H]5C)C4)c(C)sc23)cc1NS(C)(=O)=O` [Compound 133], the IC50 at PI3Kδ was 7.7 nM. The α/δ selectivity on PI3Kα is listed as 185.
The like results for `COc1ncc(-c2nc(N3CCOCC3)nc3c(CN4CC[C@@H](N5CCC[C@@H]5C)C4)c(C)sc23)cc1NS(C)(=O)=O` [Compound 134] were, in that order, 4 nM and 188.
The like results for `COc1ncc(-c2nc(N3CCOCC3)nc3c(CCN4CCCCC4)c(C)sc23)cc1NS(C)(=O)=O` [Compound 135] were, in that order, 6.3 nM and 226.
For `C=C1CCN(Cc2c(C)sc3c(-c4cnc(OC)c(NS(C)(=O)=O)c4)nc(N4CCOCC4)nc23)CC1` [Compound 136] the same measures were 7.8 nM and 268.
Consider `COc1ncc(-c2nc(N3CCOCC3)nc3c(CN4CCC5(CC4)CC5)c(C)sc23)cc1NS(C)(=O)=O` [Compound 137], for which inhibition at PI3Kδ was half-maximal at 11 nM (IC50). Further, at PI3Kα, the α/δ selectivity came to 309.
For `COc1ncc(-c2nc(N3CCOCC3)nc3c(CN4CCc5ccccc5C4)c(C)sc23)cc1NS(C)(=O)=O` [Compound 138] the same measures were 34 nM and 67.
The like results for `COc1ncc(-c2nc(N3CCOCC3)nc3c(CN4CCC(S(C)(=O)=O)CC4)c(C)sc23)cc1NS(C)(=O)=O` [Compound 139] were, in that order, 3.2 nM and 69.
`COc1ncc(-c2nc(N3CCOCC3)nc3c(CN4CCN(C)C(=O)C4)c(C)sc23)cc1NS(C)(=O)=O` [Compound 140] gave an IC50 on PI3Kδ of 3.2 nM. For the same compound, at PI3Kα, the α/δ selectivity worked out at 55.
On to `COc1ncc(-c2nc(N3CCOCC3)nc3c(CN4CC5CC5C4)c(C)sc23)cc1NS(C)(=O)=O` (stereo not shown) [Compound 141], for which the half-maximal inhibitory concentration (IC50) at PI3Kδ is 9 nM. Besides, the α/δ selectivity at PI3Kα is 120.
For `COc1ncc(-c2nc(N3CCOCC3)nc3c(CN4CCN(CC(C)(C)O)CC4)c(C)sc23)cc1NS(C)(=O)=O` [Compound 142] the same measures were 3.7 nM and 60.
`COc1ncc(-c2nc(N3CCOCC3)nc3c(CN4CCc5sccc5C4)c(C)sc23)cc1NS(C)(=O)=O` [Compound 143] showed an IC50 against PI3Kδ of 32 nM. Moreover, the α/δ selectivity on PI3Kα stood at 107.
`COc1ncc(-c2nc(N3CCOCC3)nc3c(CN4CCn5ccnc5C4)c(C)sc23)cc1NS(C)(=O)=O` [Compound 144] registered an IC50 at PI3Kδ of 3.4 nM. Besides, on PI3Kα, the α/δ selectivity was 56.
The like results for `COc1ncc(-c2nc(N3CCOCC3)nc3c(CN4CCC(OC(C)C)CC4)c(C)sc23)cc1NS(C)(=O)=O` [Compound 145] were, in that order, 3.8 nM and 287.
With `COc1ncc(-c2nc(N3CCOCC3)nc3c(CN4CCC(N5CC(F)(F)C5)CC4)c(C)sc23)cc1NS(C)(=O)=O` [Compound 146], at PI3Kδ, half-maximal inhibition (IC50) required 2.9 nM. For the same compound, the α/δ selectivity at PI3Kα is given as 120.
`COc1ncc(-c2nc(N3CCOCC3)nc3c(CN4CC(C(C)(C)O)C4)c(C)sc23)cc1NS(C)(=O)=O` [Compound 151] registered a 50% inhibitory concentration (IC50) against PI3Kδ of 15 nM. Besides, at PI3Kα, the α/δ selectivity is 41.
Turning to `COc1ncc(-c2nc(N3CCOCC3)nc3c(OC4CCOCC4)c(C)sc23)cc1NS(C)(=O)=O` [Compound 152], the 50% inhibitory concentration (IC50) against PI3Kδ came to 15.6 nM. The α/δ selectivity at PI3Kα was determined as 12.
